± gives the standard deviation of the averaged measurements.
What was measured:
Conditions in all cases: 72 h
Caco-2 [1] = test: relative viability EC50 (midpoint between 100% and the lowest measured viability); higher = less toxic
U2OS [2] = test: as above
Vero E6 [3] = test: as above
HepG2 [4] = test: as above
Calu-3 [5] = test: as above
Caco-2 [6] = test: drug sensitivity score (DSS) for viability; higher = more toxic; extreme values may be limits of the assay
U2OS [7] = test: as above
Vero E6 [8] = test: as above
HepG2 [9] = test: as above
Calu-3 [10] = test: as above
Caco-2 [11] = test: cell viability relative to DMSO; higher = less toxic
U2OS [12] = test: as above
Vero E6 [13] = test: as above
HepG2 [14] = test: as above
Calu-3 [15] = test: as above

Row | SMILES | relative viability EC50 (Caco-2 [1]) [µM] | relative viability EC50 (U2OS [2]) [µM] | relative viability EC50 (Vero E6 [3]) [µM] | relative viability EC50 (HepG2 [4]) [µM] | relative viability EC50 (Calu-3 [5]) [µM] | drug sensitivity score (Caco-2 [6]) | drug sensitivity score (U2OS [7]) | drug sensitivity score (Vero E6 [8]) | drug sensitivity score (HepG2 [9]) | drug sensitivity score (Calu-3 [10]) | cell viability (Caco-2 [11]; 1 nM) [%] | cell viability (Caco-2 [11]; 10 nM) [%] | cell viability (Caco-2 [11]; 100 nM) [%] | cell viability (Caco-2 [11]; 1000 nM) [%] | cell viability (Caco-2 [11]; 10000 nM) [%] | cell viability (U2OS [12]; 1 nM) [%] | cell viability (U2OS [12]; 10 nM) [%] | cell viability (U2OS [12]; 100 nM) [%] | cell viability (U2OS [12]; 1000 nM) [%] | cell viability (U2OS [12]; 10000 nM) [%] | cell viability (Vero E6 [13]; 1 nM) [%] | cell viability (Vero E6 [13]; 10 nM) [%] | cell viability (Vero E6 [13]; 100 nM) [%] | cell viability (Vero E6 [13]; 1000 nM) [%] | cell viability (Vero E6 [13]; 10000 nM) [%] | cell viability (HepG2 [14]; 1 nM) [%] | cell viability (HepG2 [14]; 10 nM) [%] | cell viability (HepG2 [14]; 100 nM) [%] | cell viability (HepG2 [14]; 1000 nM) [%] | cell viability (HepG2 [14]; 10000 nM) [%] | cell viability (Calu-3 [15]; 1 nM) [%] | cell viability (Calu-3 [15]; 10 nM) [%] | cell viability (Calu-3 [15]; 100 nM) [%] | cell viability (Calu-3 [15]; 1000 nM) [%] | cell viability (Calu-3 [15]; 10000 nM) [%]
1 | COc1ccc(C(=O)Nc2c(Cl)cncc2Cl)cc1OC1CCCC1 [piclamilast] | > 10 | > 10 | > 10 | > 10 | > 10 | 0 | 0 | 0.8 | 0 | 0 | 96.6 | 97.3 | 102 | 107 | 98 | 98.2 | 95.7 | 103 | 98.3 | 94.8 | 98.3 | 95 | 92.4 | 91.4 | 82 | 90.4 | 86 | 92.7 | 102 | 101 | 97.5 | 89.4 | 102 | 99.9 | 87.5
2 | O=C(O)[C@H]1CC[C@H](c2cc3cccnc3c(-c3cccc(F)c3)n2)CC1 | > 10 | > 10 | > 10 | > 10 | > 10 | 0 | 0 | 0.2 | 0 | 0 | 102 | 103 | 108 | 98 | 109 | 104 | 98.4 | 96.9 | 96.5 | 99.6 | 101 | 99.3 | 96.3 | 99 | 86.3 | 96.3 | 98.9 | 101 | 92.2 | 90.1 | 112 | 95.1 | 91.1 | 95 | 107
3 | COc1ccc(Cl)cc1C(=O)NCCc1ccc(C(=O)O)cc1 [meglitinide] | > 10 | > 10 | > 10 | > 10 | > 10 | 0 | 0 | 0 | 0.3 | 0 | 90.9 | 102 | 94.8 | 91.5 | 98.1 | 101 | 98.2 | 98.6 | 93.4 | 99.6 | 98.4 | 105 | 100 | 104 | 103 | 109 | 106 | 110 | 88.7 | 94.2 | 108 | 103 | 98.1 | 96.8 | 114
4 | CC(=O)NC1CCSC1=O (stereo not given) [citiolone] | > 10 | > 10 | > 10 | > 10 | > 10 | 0 | 0 | 0 | 0 | 0 | 98.8 | 92.6 | 97.6 | 99.7 | 99.6 | 95.4 | 95.4 | 101 | 100 | 105 | 99.9 | 94.7 | 95.6 | 102 | 106 | 102 | 95.8 | 95.1 | 109 | 110 | 103 | 98.4 | 93.2 | 101 | 110
5 | Cn1ccc2cc(NC(=O)Nc3cccnc3)ccc21 | > 10 | > 10 | > 10 | > 10 | > 10 | 0.2 | 0 | 0 | 0 | 0 | 100 | 97.9 | 88.7 | 84.5 | 95.8 | 105 | 98.8 | 101 | 97.1 | 100 | 105 | 102 | 103 | 97.7 | 103 | 91.5 | 102 | 92.3 | 95.8 | 97.2 | 108 | 97.6 | 98.1 | 94.9 | 98
6 | CC(C)NCC(O)COc1cccc2ccccc12 (stereo not given) [propranolol] | > 10 | > 10 | > 10 | > 10 | > 10 | 0 | 0.0333 ± 0.058 | 0 | 0 | 0.467 ± 0.81 | 101 ± 2.7 | 96 ± 3.8 | 101 ± 3 | 95 ± 9.6 | 100 ± 4.5 | 96.1 ± 3.6 | 95.2 ± 2.7 | 97.2 ± 7.5 | 95.6 ± 2.3 | 96.5 ± 7.6 | 94.3 ± 3.7 | 98.95 ± 0.49 | 95.3 ± 4 | 95.1 ± 0.71 | 99.3 ± 3.2 | 92.9 ± 6.3 | 101 ± 2.8 | 95.6 ± 7 | 102 ± 6 | 102 ± 1.6 | 95.3 ± 3.9 | 96.7 ± 2.8 | 99.4 ± 6 | 89.6 ± 5 | 92.9 ± 1.8
7 | COC(=O)C1=C(C)NC(C)=C(C(=O)OCCSc2ccccc2)[C@@H]1C [PCA-4248] | > 10 | > 10 | > 10 | > 10 | > 10 | 0.8 | 0 | 0 | 0 | 0.1 | 97.7 | 99.4 | 102 | 94.8 | 84 | 98 | 95.9 | 93.6 | 92.9 | 96.1 | 98.1 | 99.1 | 98.2 | 96.5 | 98.8 | 92 | 90.3 | 93.4 | 94.6 | 95.9 | 93.8 | 95.6 | 104 | 99 | 87.7
8 | O=C(CCCCCCCC(=O)NCCO)NCCO [adelmidrol] | > 10 | > 10 | > 10 | > 10 | > 10 | 0 | 0 | 0 | 0 | 0 | 93.1 | 98.7 | 96.2 | 104 | 98.9 | 96.3 | 103 | 94.5 | 99.5 | 103 | 99.2 | 98.7 | 96.4 | 96 | 107 | 112 | 94.9 | 98.6 | 94.8 | 101 | 94.2 | 97.1 | 87.2 | 107 | 104
9 | c1ccc2c(CC3=NCCN3)cccc2c1 [naphazoline] | > 10 | > 10 | > 10 | > 10 | > 10 | 0 | 0 | 0 | 0 | 0 | 95.6 | 102 | 90.1 | 101 | 93.2 | 97 | 101 | 94.9 | 97.8 | 93.9 | 102 | 99.4 | 95.5 | 97.7 | 93.3 | 96.1 | 102 | 102 | 98.4 | 118 | 93.6 | 93.6 | 109 | 107 | 89
10 | CN(C)CCN1C(=O)c2cccc3cc(NC(N)=O)cc(c23)C1=O [unbs-5162] | > 10 | > 10 | > 10 | 1.61 | > 10 | 0 | 0 | 0 | 5.3 | 1.5 | 96.5 | 99.3 | 93.5 | 104 | 96 | 104 | 99.7 | 96.4 | 101 | 88 | 108 | 101 | 107 | 95.1 | 90.8 | 100 | 101 | 93.7 | 86.5 | 42.2 | 100 | 105 | 95.9 | 88.6 | 78.4
11 | N#Cc1cc2nc(O)c(O)nc2cc1[N+](=O)[O-] [CNQX] | > 10 | > 10 | > 10 | > 10 | > 10 | 0 | 0 | 0 | 0 | 0.4 | 99 | 96.1 | 99.8 | 97.5 | 94.6 | 97.9 | 101 | 97.9 | 104 | 96.8 | 100 | 100 | 104 | 94.8 | 95.2 | 99.4 | 94.7 | 99.1 | 98.3 | 99.5 | 95.9 | 101 | 106 | 97 | 85.8
12 | COc1ccc2[nH]c(SCc3ncc(C)c(OC)c3C)nc2c1 [omeprazole-sulfide] | > 10 | > 10 | > 10 | > 10 | > 10 | 0 | 0 | 0 | 0 | 0 | 104 | 96.1 | 113 | 96 | 101 | 96.8 | 97.8 | 96.5 | 102 | 96.8 | 106 | 89.6 | 87.8 | 94.9 | 95.7 | 105 | 99.6 | 99 | 94.4 | 102 | 89.7 | 102 | 101 | 103 | 90.6
13 | c1ccc2c(c1)CCC[C@H]2Nc1nc2ccccc2[nH]1 [NS-8593] | > 10 | > 10 | > 10 | > 10 | > 10 | 0 | 0 | 0 | 0.8 | 0 | 93.1 | 92.9 | 92.4 | 97.2 | 92.2 | 104 | 98.1 | 96.2 | 100 | 90.1 | 94 | 95.1 | 95.6 | 98.4 | 87.4 | 96.8 | 96.8 | 106 | 99.2 | 78.5 | 96.2 | 96.2 | 94 | 94.3 | 90.1
14 | CCN(CC)CCNC(=O)c1ccccc1I [I-BZA2] | > 10 | > 10 | > 10 | > 10 | > 10 | 0 | 0 | 0 | 0 | 0 | 89.9 | 86.5 | 98.7 | 100 | 91.4 | 99.1 | 101 | 95.8 | 102 | 102 | 99 | 99.3 | 104 | 91.5 | 110 | 105 | 94.7 | 102 | 84 | 100 | 98.8 | 102 | 105 | 105 | 115
15 | COc1ccc(Cc2nccc3cc(OC)c(OC)cc23)cc1OC [papaverine] | > 10 | > 10 | > 10 | 3.17 | > 10 | 1.7 | 0 | 0 | 3.7 | 1.5 | 95 | 91.9 | 95.8 | 86.1 | 77.8 | 101 | 92.5 | 99 | 96.5 | 89.7 | 103 | 105 | 105 | 108 | 90.1 | 111 | 109 | 92.9 | 100 | 32.7 | 91.3 | 98.8 | 98.8 | 87.6 | 81.2

Reference: the supplement of paper PMC13380429
